Experimental data taken from patent EP3733658B1, “PRENYLATED BENZOPYRANES AS PPAR AGONISTS” (Universitat de València, priority 2017, dated 2019).

Tests used:
human neutrophils = assay: Annexin V / propidium iodide flow cytometry of apoptosis and survival, neutrophils; assay type: cell-based; conditions: 24 h, compared to the vehicle
Protocol: (§1) In addition, the apoptosis and survival rate for human neutrophils and HUVEC was determined by double staining with annexin V and propidium iodide (PI) by flow cytometry.
(§2) Cytofluorometric analysis of apoptosis and survival. The kit FITC Annexin V Apoptosis Detection kit (BD Bioscience, San Jose, CA) was used. The staining protocol and all the reagents were supplied with the commercial kit. HUVEC were separated from the culture flasks by accutase (StemPro® Accutase® Cell dissociation reagent, Thermofischer Scientific Waltham, MA). Both cell types were incubated at 37°C for 24h in the presence or absence of the test compounds. Confluent HUVEC and freshly isolated neutrophils were washed, resuspended in binding buffer 1x (1 × 10^6 cells/mL) and stained with annexin V conjugated with FITC and propidium iodide (PI) as described in the manufacturer's instructions. The cells were analyzed in a BD FACSVerse Flow Cytometer (BD Biosciences, San Jose, CA) and differentiated as early apoptosis cells (annexin V^+ and PI^-), late apoptosis cells and/or necrotic cells (annexin V^+ and PI^+), and live cells (annexin V^- and PI^-).

[1] = system: white adipose tissue (WAT); assay: Treatment of ob/ob mice: white adipose tissue weight, histology and F4/80 immunohistochemistry; assay type: in vivo; conditions: oral, 4 days
Excerpt: (§3) […]. […] […].
The samples of epididymal white adipose tissue (WAT) and liver were fixed in 4% paraformaldehyde, embedded in paraffin, sectioned with a microtome (Leica RM2245, Leica Biosystems, Wetzlar, Germany) and mounted in microscope slides Superfrost® plus (Thermo Fisher Scientific, Waltham, MA). Cross sections of WAT and liver were obtained. At least 10 slides were examined containing ≈ 4 cross sections of tissue (5 µm thickness) of each animal. Hematoxilin and eosin (H&E) staining was performed of the WAT and liver. Inflammatory infiltration in WAT was measured as previously described (Toyoda et al., 2008). After inactivation of the peroxidase (3% H2O2) and blocking with goat serum (Abcam, Cambridge, UK), cross sections of WAT were incubated overnight (4°C) with the following primary (mAb) monoclonal antibody: a rabbit anti-mouse F4/80 mAb (dilution 1:100, Abcam, Cambridge, UK). A specific marking was detected with a secondary goat HRP-conjugated anti-rabbit antibody (dilution 1:500, Dako, Copenhagen, Denmark). To confirm the specificity of the antibodies, control antibodies with the same isotope (Abcam, Cambridge, UK) or secondary antibody were used only as negative controls. […] Five fields of each WAT tissue section were photographed (Axio Observer A1, Carl Zeiss microscope, Thornwood, NY) digitalized and analyzed (Imaged software 1.48V, Bethesda, […]). Quantification was performed double blind with codes.

[2] = Treatment of ob/ob mice: plasma metabolites (cholesterol, HDL-c, triglycerides, free fatty acids, ALT, AST); assay type: in vivo; parameters: blood levels of free fatty acids: unit not given here; conditions: oral, 4 days; for triglyceride levels in plasma: control 137 mg/dL
Protocol: as §3
Free fatty acids (FFA) in plasma, and the enzymes aspartate aminotransferase (AST) and alanine aminotransferase (ALT) were determined with a colorimetric assay kit (Sigma-Aldrich, Madrid, Spain). In addition the plasma lipid levels for total cholesterol and triglycerides (TG) were measured by enzymatic methods (WAKO, Cape Charles, VA). The concentration of HDLcholesterol (HDL-c) was also determined with the same method used to measure total cholesterol, after precipitating the apolipoprotein-B (apoB) with dextran sulphate/MgCl2 (Sigma-Aldrich, Madrid, Spain) as previously described (Zieske et al., 2005).

liver = assay: Treatment of ob/ob mice: liver weight and liver triglycerides; assay type: in vivo; conditions: oral, 4 days
Excerpt: 6 animals were used in each group in independent experiments (n=6).

HUVEC = assay: Annexin V / propidium iodide flow cytometry of apoptosis and survival, HUVEC; assay type: cell-based, human; conditions: tested concentrations including 100 µM, compared with the vehicle
Protocol: as §1, §2

RXRα/PPARγ interaction = biological target: T1, RXRα/PPARγ interaction (Homo sapiens, UniProt P37231); assay: Immunoprecipitation of PPARγ followed by Western blot for RXRα in HUVEC; assay type: cell-based; conditions: pretreated HUVEC
T1 construct: endogenous in cells; host or cells: HUVEC
T1 sequence (P37231 29-505 limits assumed): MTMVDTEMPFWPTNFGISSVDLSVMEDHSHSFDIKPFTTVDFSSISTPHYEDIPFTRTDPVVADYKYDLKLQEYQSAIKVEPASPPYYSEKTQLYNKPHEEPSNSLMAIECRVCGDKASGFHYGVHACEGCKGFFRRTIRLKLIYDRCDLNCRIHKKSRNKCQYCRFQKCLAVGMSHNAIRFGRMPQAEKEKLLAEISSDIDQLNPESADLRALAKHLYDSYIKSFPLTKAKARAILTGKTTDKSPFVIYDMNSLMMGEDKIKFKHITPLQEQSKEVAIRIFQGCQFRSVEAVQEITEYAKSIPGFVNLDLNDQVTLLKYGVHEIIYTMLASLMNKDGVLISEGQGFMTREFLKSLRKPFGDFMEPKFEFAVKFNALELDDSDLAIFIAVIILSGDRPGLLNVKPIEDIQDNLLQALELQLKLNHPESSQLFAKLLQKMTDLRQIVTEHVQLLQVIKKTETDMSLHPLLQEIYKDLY
T1 sequence (P19793 1-462 partner): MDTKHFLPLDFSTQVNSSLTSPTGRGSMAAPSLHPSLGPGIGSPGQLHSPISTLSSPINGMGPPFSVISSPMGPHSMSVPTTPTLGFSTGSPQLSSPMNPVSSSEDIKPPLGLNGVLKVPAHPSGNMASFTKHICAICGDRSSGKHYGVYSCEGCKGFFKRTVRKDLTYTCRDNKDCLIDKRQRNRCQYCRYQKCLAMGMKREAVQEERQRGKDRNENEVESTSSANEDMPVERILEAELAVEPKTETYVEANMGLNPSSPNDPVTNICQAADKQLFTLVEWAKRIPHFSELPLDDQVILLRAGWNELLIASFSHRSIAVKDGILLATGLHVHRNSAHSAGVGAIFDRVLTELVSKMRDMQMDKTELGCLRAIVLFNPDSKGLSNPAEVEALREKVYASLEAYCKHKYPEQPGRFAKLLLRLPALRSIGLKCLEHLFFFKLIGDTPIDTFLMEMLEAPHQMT
Protocol: For the immunoprecipitation, the protein extracts were obtained in 50 mM Tris-HCl (pH 8), 150 mM NaCl, 1% Nonidet P-40 and protease (1 mM PMSF, 40 µg/mL aprotinin and 40 µg/mL leupeptin) and phosphatase inhibitors. Then the protein extracts (~200 µg) were incubated with 5 µg of an antibody against PPARγ. Immunocomplexes were precipitated using an anti-rabbit IgG beads (cat# 8800, eBioscience, San Diego, CA) and suspended in a sample buffer with 50 mM dithiotreitol (DTT). Western blot was performed with an antibody against RXRα and the membranes were incubated with the secondary HRP-conjugate Rabbit TrueBlot (eBioscience, San Diego, CA) as secondary antibody. Chemoluminescence signals were developed with ECL (GE Healthcare, Madrid, Spain).

CCOC(=O)CCC(C)=CCCC1(C)CCc2cc(OCc3ccc(F)cc3)ccc2O1 (centres unmarked) [Compound 9]
effect on neutrophil survival (human neutrophils; 30 µM): 1.07% | effect on cell survival (human neutrophils; 100 µM): 1.55% | number of macrophages (F4/80) in WAT ([1]; 30 mg/Kg/d): significantly reduce | weight of epididymal white adipose tissue (WAT) compared to the control group [1]: did not significantly increase | mean area of the adipocytes in WAT ([1]; compound 9 10 and 30 mg/Kg/d (dose-dependent), rosiglitazone 10 mg/Kg/d): significant decrease | triglyceride levels in plasma ([2]; 10 mg/Kg/d): 122 mg/dL | triglyceride levels in plasma ([2]; 30 mg/Kg/d): 101 mg/dL | blood levels of free fatty acids ([2]; 30 mg/Kg/d, control 0.67): 0.25 | triglyceride levels in plasma (in words) [2]: decrease of triglyceride levels in plasma, although not in a significant manner | decrease of AST level compared to the ob/ob control group ([2]; plasma, 30 mg/Kg/d): 28% | increase of total cholesterol levels with respect to the control group ([2]; plasma, 30 mg/Kg/d): 50% | ALT level ([2]; plasma): reduced | HDL-c with respect to the control group ([2]; plasma, compound 9 10 and 30 mg/Kg/d, WY-14643 30 mg/Kg/d): significantly increased | triglyceride content in the liver compared to the ob/ob control group (liver; 30 mg/Kg/d): did not accumulate significantly | liver weight with respect to the ob/ob control group (liver): non-significant weight increase | toxicity (HUVEC): absence of toxicity

C/C(=C\CCC1(C)CCc2cc(O)cc(C)c2O1)CC/C=C(\C)C(=O)O (centres unmarked) [Polycerasoidol, 1, polycerasoidol]
RXRα/PPARγ interaction (RXRα/PPARγ interaction): increased RXRα/PPARγ interaction
